Reference: US10173991B2, “Sulfone amide linked benzothiazole inhibitors of endothelial lipase” (BRISTOL-MYERS SQUIBB COMPANY, priority 2014, dated 2019)
pIC50: −log10 of the molar value.

target: Endothelial lipase (EL) (Homo sapiens (Human), UniProt Q9Y5X9); experiment: Endothelial lipase (EL) enzymatic assay with fluorescent substrate A10070 in DMPG vesicles; assay type: biochemical; conditions: not given
Outline: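 Vesicles prepared: A10070 dried with DMPG, resuspended in HEPES pH 8.0/NaCl/EDTA, sonicated on ice. Enzyme incubated with compound 30 min at 37° C. Reaction started with 1:10 diluted vesicles. Fluorescence (490/530 nm) followed 60 min; slope from 300–900 secs gives rate.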

Endothelial lipase (EL), sequence (Q9Y5X9 21-500): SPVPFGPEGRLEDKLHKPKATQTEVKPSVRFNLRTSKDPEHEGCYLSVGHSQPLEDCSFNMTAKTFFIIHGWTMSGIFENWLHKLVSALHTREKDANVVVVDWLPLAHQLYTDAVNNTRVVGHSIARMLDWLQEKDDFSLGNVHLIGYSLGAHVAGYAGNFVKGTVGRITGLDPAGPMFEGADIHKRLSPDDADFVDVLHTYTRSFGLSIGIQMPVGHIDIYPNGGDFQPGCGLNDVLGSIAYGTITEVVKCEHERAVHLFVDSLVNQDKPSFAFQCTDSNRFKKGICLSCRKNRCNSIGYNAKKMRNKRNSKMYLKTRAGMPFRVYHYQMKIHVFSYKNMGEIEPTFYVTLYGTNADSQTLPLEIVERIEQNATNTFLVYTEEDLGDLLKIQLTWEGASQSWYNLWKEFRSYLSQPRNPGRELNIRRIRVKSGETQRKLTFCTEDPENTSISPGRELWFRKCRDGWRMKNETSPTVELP

| Compound | pIC50 |
| --- | --- |
| COCCS(=O)(=O)C(C(=O)NCC(=O)NC1CC1)c1nc2cc(C(F)(F)F)c(Br)cc2s1 (stereo not shown) [Example 165, 2-[6-bromo-5-(trifluoromethyl)-1,3-benzothiazol-2-yl]-N-[(cyclopropyl-carbamoyl)methyl]-2-(2-methoxyethane-sulfonyl) acetamide] | 7.74 |
| COC(=O)Nc1ccc(-c2cc3nc(C(C(=O)NCC(=O)NCCOC(C)C)S(C)(=O)=O)sc3cc2F)cc1F (stereo not shown) [Example 363, methyl N-[2-fluoro-4-(6-fluoro-2-{methanesulfonyl [({[2-(propan-2-yloxy)ethyl]carbamoyl}methyl)carbamoyl]methyl}-1,3-benzothiazol-5-yl)phenyl]carbamate] | 7.96 |
| CC(C)n1cc(-c2cc(F)c3nc(C(C(=O)NCC(=O)NC4CC4)S(=O)(=O)c4ccc(F)cc4)sc3c2)ccc1=O (stereo not shown) [Example 470, N-[(cyclopropyl-carbamoyl)methyl]-2-{4-fluoro-6-[6-oxo-1-(propan-2-yl)-1,6-dihydropyridin-3-yl]-1,3-benzothiazol-2-yl}-2-(4-fluorobenzene-sulfonyl)acetamide] | 7.80 |
| COCCS(=O)(=O)C(C(=O)NCC(=O)NC1CC1)c1nc2cc(-c3cccnc3F)ccc2s1 (stereo not shown) [Example 82, N-[(cyclopropyl-carbamoyl)methyl]-2-[5-(2-fluoropyridin-3-yl)-1,3-benzothiazol-2-yl]-2-(2-methoxyethane-sulfonyl) acetamide] | 7.21 |
| COC1(C)CN(C(=O)c2ccc(-c3ccc4nc(C(C(=O)NCC(=O)NC5CC5)S(=O)(=O)c5ccccc5)sc4c3)cc2)C1 (stereo not shown) [Example 401, 2-(benzenesulfonyl)-N-[(cyclopropyl-carbamoyl)methyl]-2-{6-[4-(3-methoxy-3-methylazetidine-1-carbonyl)phenyl]-1,3-benzothiazol-2-yl}acetamide] | 8.30 |
| O=C(CNC(=O)C(c1nc2cc(F)c(-c3ccc(NC(=O)OCC4CC4)cc3)cc2s1)S(=O)(=O)CCC(F)(F)F)NC1CC1 (stereo not shown) [Example 531, cyclopropylmethyl N-{4-[2-({[(cyclopropyl-carbamoyl)methyl]carbamoyl}(3,3,3-trifluoropropane-sulfonyl)methyl)-5-fluoro-1,3-benzothiazol-6-yl]phenyl} carbamate] | 9.00 |
| COCCNC(=O)c1ccc(-c2ccc3nc(C(C(=O)NCC(=O)NC4CC4)S(C)(=O)=O)sc3c2)cc1OC (stereo not shown) [Example 410, 4-[2-({[(cyclopropyl-carbamoyl)methyl]carbamoyl} (methanesulfonyl)methyl)-1,3-benzothiazol-6-yl]-2-methoxy-N-(2-methoxyethyl) benzamide] | 7.28 |
| O=C(CNC(=O)C(c1nc2ccc(-c3ccc(F)nc3)cc2s1)S(=O)(=O)c1cccnc1)NC1CC1 (stereo not shown) [Example 467, N-[(cyclopropyl-carbamoyl)methyl]-2-[6-(6-fluoropyridin-3-yl)-1,3-benzothiazol-2-yl]-2-(pyridine-3-sulfonyl) acetamide] | 6.71 |
| CN(C)S(=O)(=O)C(C(=O)NCC(=O)NC1CC1)c1nc2c(F)cc(-c3ccc(-c4ccccc4)nc3)cc2s1 (stereo not shown) [Example 498, N-[(cyclopropyl-carbamoyl)methyl]-2-(dimethyl-sulfamoyl)-2-[4-fluoro-6-(6-phenylpyridin-3-yl)-1,3-benzothiazol-2-yl]acetamide] | 8.52 |
| CN(C)S(=O)(=O)C(C(=O)NCC(=O)NC1CC1)c1nc2c(F)cc(-c3cccc(NC(=O)OCc4ccccc4)c3)cc2s1 (stereo not shown) [Example 502, benzyl N-{3-[2-({[(cyclopropyl-carbamoyl)methyl]carbamoyl} (dimethyl-sulfamoyl)methyl)-4-fluoro-1,3-benzothiazol-6-yl]phenyl} carbamate] | 8.70 |
| O=C(CNC(=O)C(c1nc2cc(F)c(-c3cncnc3)cc2s1)S(=O)(=O)c1cccc(-c2cncnc2)c1)NC1CC1 (stereo not shown) [Example 446, N-[(cyclopropyl-carbamoyl)methyl]-2-[5-fluoro-6-(pyrimidin-5-yl)-1,3-benzothiazol-2-yl]-2-[3-(pyrimidin-5-yl)benzenesulfonyl] acetamide] | 7.11 |
| COCCS(=O)(=O)C(C(=O)NCC(=O)NC1CC1)c1nc2ccc(-c3ccc(OC(C)C)nc3)cc2s1 (stereo not shown) [Example 291, N-[(cyclopropyl-carbamoyl)methyl]-2-(2-methoxyethane-sulfonyl)-2-{6-[6-(propan-2-yloxy)pyridin-3-yl]-1,3-benzothiazol-2-yl} acetamide] | 7.54 |
| COCCS(=O)(=O)C(C(=O)NCC(=O)NC1CC1)c1nc2ccc(-c3ccc(-c4nnc(C)o4)cc3)cc2s1 (stereo not shown) [Example 101, N-[(cyclopropyl-carbamoyl)methyl]-2-(2-methoxyethane-sulfonyl)-2-{6-[4-(5-methyl-1,3,4-oxadiazol-2-yl)phenyl]-1,3-benzothiazol-2-yl} acetamide] | 8.05 |
| COCCS(=O)(=O)C(C(=O)NCC(=O)NC1CC1)c1nc2c(F)cc(-c3ccc4[nH]c(=O)ccc4c3)cc2s1 (stereo not shown) [Example 216, N-[(cyclopropyl-carbamoyl)methyl]-2-[4-fluoro-6-(2-oxo-1,2-dihydroquinolin-6-yl)-1,3-benzothiazol-2-yl]-2-(2-methoxyethane-sulfonyl) acetamide] | 7.72 |
| CS(=O)(=O)C(C(=O)NCC(=O)NC1CC1)c1nc2ccc(-c3ccc(-n4ccnc4)cc3)cc2s1 (stereo not shown) [Example 580, N-[(cyclopropyl-carbamoyl)methyl]-2-{6-[4-(1H-imidazol-1-yl)phenyl]-1,3-benzothiazol-2-yl}-2-methanesulfonyl-acetamide] | 7.92 |
| COCCS(=O)(=O)C(C(=O)NCC(=O)NC1CC1)c1nc2c(F)cc(-c3ccn(C)c(=O)c3)cc2s1 (stereo not shown) [Example 220, N-[(cyclopropyl-carbamoyl)methyl]-2-[4-fluoro-6-(1-methyl-2-oxo-1,2-dihydropyridin-4-yl)-1,3-benzothiazol-2-yl]-2-(2-methoxyethane-sulfonyl) acetamide] | 7.22 |
| COCCS(=O)(=O)C(C(=O)NCC(=O)NC1CC1)c1nc2ccc(-c3ccc4c(c3)COC4=O)cc2s1 (stereo not shown) [Example 341, N-[(cyclopropyl-carbamoyl)methyl]-2-(2-methoxyethane-sulfonyl)-2-[6-(1-oxo-1,3-dihydro-2-benzofuran-5-yl)-1,3-benzothiazol-2-yl]acetamide] | 7.96 |
| COCCS(=O)(=O)C(C(=O)NCC(=O)NCCOC(C)C)c1nc2cc(-c3cnnc(C)c3)c(F)cc2s1 (stereo not shown) [Example 358, 2-[6-fluoro-5-(6-methylpyridazin-4-yl)-1,3-benzothiazol-2-yl]-2-(2-methoxyethane-sulfonyl)-N-({[2-(propan-2-yloxy)ethyl]carbamoyl}methyl)acetamide] | 7.22 |
| COCCS(=O)(=O)C(C(=O)NCC(=O)NC1CC1)c1nc2ccc(-c3ccc(NC(=O)OC)cc3C)cc2s1 (stereo not shown) [Example 30, methyl N-{4-[2-({[(cyclopropy-lcarbamoyl)methyl]carbamoyl}(2-methoxyethane-sulfonyl)methyl)-1,3-benzothiazol-6-yl]-3-methylphenyl} carbamate] | 7.68 |

Results, then the molecule that gave them:

| pIC50 | Compound |
| --- | --- |
| 6.91 | CC(C)S(=O)(=O)C(C(=O)NCC(=O)NC1CC1)c1nc2cc(F)c(-c3cnc(=O)[nH]c3)cc2s1 (stereo not shown) [Example 232, N-[(cyclopropyl-carbamoyl)methyl]-2-[5-fluoro-6-(2-oxo-1,2-dihydropyrimidin-5-yl)-1,3-benzothiazol-2-yl]-2-(propane-2-sulfonyl) acetamide] |
| 7.03 | Cc1cc(-c2cc3sc(C(C(=O)NCC(=O)NC4CC4)S(=O)(=O)N4CCOCC4)nc3cc2F)cnn1 (stereo not shown) [Example 487, N-[(cyclopropyl-carbamoyl)methyl]-2-[5-fluoro-6-(6-methylpyridazin-4-yl)-1,3-benzothiazol-2-yl]-2-(morpholine-4-sulfonyl) acetamide] |
| 7.35 | Cc1cc(-c2cc3nc(C(C(=O)NCC(=O)NC4CC4)S(=O)(=O)C(C)C)sc3cc2F)cnn1 (stereo not shown) [Example 271, N-[(cyclopropyl-carbamoyl)methyl]-2-[6-fluoro-5-(6-methylpyridazin-4-yl)-1,3-benzothiazol-2-yl]-2-(propane-2-sulfonyl)acetamide] |
| 8.05 | Cc1ccc(-c2cc3sc(C(C(=O)NCC(=O)NC4CC4)S(C)(=O)=O)nc3cc2F)cn1 (stereo not shown) [Example 191, N-[(cyclopropyl-carbamoyl)methyl]-2-[5-fluoro-6-(6-methylpyridin-3-yl)-1,3-benzothiazol-2-yl]-2-methanesulfonyl-acetamide] |
| 7.92 | COCCS(=O)(=O)C(C(=O)NCC(=O)NC1CC1)c1nc2cc(-c3cccc(-c4cc[nH]n4)c3)c(F)cc2s1 (stereo not shown) [Example 129, N-[(cyclopropyl-carbamoyl)methyl]-2-{6-fluoro-5-[3-(1H-pyrazol-3-yl)phenyl]-1,3-benzothiazol-2-yl}-2-(2-methoxyethane-sulfonyl) acetamide] |
| 6.78 | CN(C)S(=O)(=O)C(C(=O)NCC(=O)NC1CC1)c1nc2c(F)cc(-c3ccc(F)nc3)cc2s1 (stereo not shown) [Example 489, N-[(cyclopropyl-carbamoyl)methyl]-2-(dimethyl-sulfamoyl)-2-[4-fluoro-6-(6-fluoropyridin-3-yl)-1,3-benzothiazol-2-yl]acetamide] |
| 7.60 | CS(=O)(=O)C(C(=O)NCC(=O)NC1CC1)c1nc2cc(-c3cccnc3F)c(F)cc2s1 (stereo not shown) [Example 367, N-[(cyclopropyl-carbamoyl)methyl]-2-[6-fluoro-5-(2-fluoropyridin-3-yl)-1,3-benzothiazol-2-yl]-2-methanesulfonyl-acetamide] |

same assay, conditions: EL from conditioned media of HT-1080 cells; 30 min preincubation at 37° C.

| pIC50 | Compound |
| --- | --- |
| 7.72 | Cc1ncc(-c2cc3sc(C(C(=O)NCC(=O)NC4CC4)S(C)(=O)=O)nc3cc2OC(F)F)cn1 (stereo not shown) [Example 601, N-[(Cyclopropylcarbamoyl)methyl]-2-[5-(difluoromethoxy)-6-(2-methylpyrimidin-5-yl)-1,3-benzothiazol-2-yl]-2-methanesulfonylacetamide] |
| 8.68 | COCCS(=O)(=O)C(C(=O)NCC(=O)NC1CC1)c1nc2cc(F)c(-c3ccc(-c4ncon4)cc3)cc2s1 (stereo not shown) [Example 411, 2-(6-(4-(1,2,4-Oxadiazol-3-yl)phenyl)-5-fluorobenzo[d]thiazol-2-yl)-N-(2-(cyclopropylamino)-2-oxoethyl)-2-((2-methoxyethyl)sulfonyl)acetamide] |
